# Data published in patent publication US6660752B2, “2,6-Substituted chroman derivatives useful as beta-3 adrenoreceptor agonists” (Bayer Pharmaceuticals Corporation, priority 2001, dated 2003).
# pEC50: −log10 of the molar value.
# Target: T1, human beta-3-adrenergic receptor (Homo sapiens, UniProt P13945)
# T1 construct: stably express full-length human beta-3-adrenergic receptor; expressed in transfected cells; host or cells: Chinese hamster ovary (CHO) cells
# Assay: cAMP production (beta-3 agonist activity) in CHO cells stably expressing human beta-3-adrenergic receptor, cAMP SPA
# Type: cell-based
# Conditions: CHO cells expressing full-length human beta-3-adrenergic receptor, 30 min incubation, 10 μM to 3 nM, read-out: Beta-3 Agonistic Activity: Compounds with EC50 values >1 μM
# Procedure, shortened: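 CHO cells stably expressing full-length receptor treated 30 min at 37° C with compounds (10 μM to 3 nM, 3-fold dilutions) in KRP buffer pH 7.4 with […] IBMX and 1% DMSO. Lysed cells assayed for cAMP by SPA; EC50 derived from cAMP concentration-response curves.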
# T1 sequence (P13945 whole entry): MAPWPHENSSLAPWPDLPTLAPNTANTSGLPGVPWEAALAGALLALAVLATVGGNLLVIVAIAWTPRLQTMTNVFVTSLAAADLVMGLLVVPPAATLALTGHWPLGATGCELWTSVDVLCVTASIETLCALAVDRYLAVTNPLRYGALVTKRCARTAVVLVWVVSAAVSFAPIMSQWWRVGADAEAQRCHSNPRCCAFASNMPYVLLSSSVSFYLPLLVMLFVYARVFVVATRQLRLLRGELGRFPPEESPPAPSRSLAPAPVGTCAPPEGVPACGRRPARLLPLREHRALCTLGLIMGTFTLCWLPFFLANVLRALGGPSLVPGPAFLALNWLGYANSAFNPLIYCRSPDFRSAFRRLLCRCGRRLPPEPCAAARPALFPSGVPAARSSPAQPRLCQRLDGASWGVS
row,SMILES,pEC50
1,O=[N+]([O-])c1cccc(-c2ccc3c(c2)CC[C@H](CNC[C@H](O)c2cccnc2)O3)c1 [Example 42],< 6.00

# Same assay, conditions: CHO cells expressing full-length human beta-3-adrenergic receptor, 30 min incubation, 10 μM to 3 nM, read-out: Beta-3 Agonistic Activity: Compounds with EC50 values ≦1 μM
row,SMILES,pEC50
1,"Cc1ccc(-c2cc(-c3ccc4c(c3)CC[C@H](CNC[C@H](O)c3cccnc3)O4)ccc2C(=O)O)cc1 [Example 205, 5-[(2R)-2-({[(2R)-2-hydroxy-2-(3-pyridinyl)ethyl]amino}methyl)-3,4-dihydro-2H-chromen-6-yl]-4′-methyl-1,1′-biphenyl-2-carboxylic Acid]",≥ 6.00
2,N#Cc1ccc(NS(=O)(=O)c2ccc(-c3ccc4c(c3)CC[C@H](CNC[C@H](O)c3cccnc3)O4)cc2)cc1 [Example 256],≥ 6.00
3,"O=S(=O)(Nc1nccs1)c1ccc(-c2ccc3c(c2)CC[C@H](CNC[C@H](O)c2cccnc2)O3)cc1 [Example 265, 4-[(2R)-2-({[(2R)-2-hydroxy-2-(3-pyridinyl)ethyl]amino}methyl)-3,4-dihydro-2H-chromen-6-yl]-N-(1,3-thiazol-2-yl)benzenesulfonamide]",≥ 6.00
4,"COc1cc(OC)nc(NS(=O)(=O)c2ccc(-c3ccc4c(c3)CC[C@H](CNC[C@H](O)c3cccnc3)O4)cc2OC(F)(F)F)n1 [Example 274, N-(4,6-dimethoxy-2-pyrimidinyl)-4-[(2R)-2-({[(2R)-2-hydroxy-2-(3-pyridinyl)ethyl]amino}methyl)-3,4-dihydro-2H-chromen-6-yl]-2-(trifluoromethoxy)benzenesulfonamide]",≥ 6.00
5,O=C1CCc2cc(NS(=O)(=O)c3cccc(-c4ccc5c(c4)CC[C@H](CNC[C@H](O)c4cccnc4)O5)c3)ccc21 [Example 255],≥ 6.00
6,"CC(C)Cc1cc(-c2ccc3c(c2)CC[C@H](CNC[C@H](O)c2cccnc2)O3)ccc1C(=O)O [Example 211, 4-[(2R)-2-({[(2R)-2-hydroxy-2-(3-pyridinyl)ethyl]amino}methyl)-3,4-dihydro-2H-chromen-6-yl]-2-isobutylbenzoic Acid]",≥ 6.00
7,"O=C(NS(=O)(=O)c1ccc(-c2ccc3c(c2)CC[C@H](CNC[C@H](O)c2cccnc2)O3)cc1)c1ccc(F)cc1 [Example 295, N-(4-fluorobenzoyl)-4-[(2R)-2-({[(2R)-2-hydroxy-2-(3-pyridinyl)ethyl]amino}methyl)-3,4-dihydro-2H-chromen-6-yl]benzenesulfonamide]",≥ 6.00
8,"O=C(O)c1cccc(CCc2ccc3c(c2)CCC(CNC[C@H](O)c2cccnc2)O3)c1 (stereo in doubt) [Example 216, 3-{2-[(2S)-2-({[(2R)-2-hydroxy-2-(3-pyridinyl)ethyl]amino}methyl)-3,4-dihydro-2H-chromen-6-yl]ethyl}benzoic Acid]",≥ 6.00
9,COc1ccc(-c2ccc3c(c2)CC[C@H](CNC[C@H](O)c2cccnc2)O3)cc1S(=O)(=O)Nc1ccc(C(C)=O)cc1 [Example 280],≥ 6.00
10,"CCOC(=O)c1ccc(Oc2cc(-c3ccc4c(c3)CC[C@H](CNC[C@H](O)c3cccnc3)O4)ccc2C(=O)O)cc1 [Example 197, 2-[4-(ethoxycarbonyl)phenoxy]-4-[(2R)-2-({[(2R)-2-hydroxy-2-(3-pyridinyl)ethyl]amino}methyl)-3,4-dihydro-2H-chromen-6-yl]benzoic acid]",≥ 6.00
11,O[C@@H](CNC[C@H]1CCc2cc(-c3ccc(-c4ccccc4)cc3)ccc2O1)c1cccnc1 [Example 47],≥ 6.00
12,"O=S(=O)(Nc1ncccn1)c1ccc(-c2ccc3c(c2)CC[C@@H](CNCC(O)c2cccnc2)O3)cc1 (stereo partly drawn) [Example 249B, 4-[(2S)-2-({[-2-hydroxy-2-(3-pyridinyl)ethyl]amino}methyl)-3,4-dihydro-2H-chromen-6-yl]-N-(2-pyrimidinyl)benzenesulfonamide]",≥ 6.00
13,"COc1ccc(C(=O)NS(=O)(=O)c2ccc(-c3ccc4c(c3)CC[C@H](CNC[C@H](O)c3cccnc3)O4)cc2)cc1 [Example 300, 4-[(2R)-2-({[(2R)-2-hydroxy-2-(3-pyridinyl)ethyl]amino}methyl)-3,4-dihydro-2H-chromen-6-yl]-N-(4-methoxybenzoyl)benzenesulfonamide]",≥ 6.00
14,COc1ccc(-c2ccc3c(c2)CC[C@H](CNC[C@H](O)c2cccnc2)O3)cc1S(=O)(=O)Nc1nccs1 [Example 266],≥ 6.00
15,"CC(C)(C)C(=O)NS(=O)(=O)c1ccc(-c2ccc3c(c2)CC[C@H](CNC[C@H](O)c2cccnc2)O3)cc1 [Example 292, N-(2,2-dimethylpropanoyl)-4-[(2R)-2-({[(2R)-2-hydroxy-2-(3-pyridinyl)ethyl]amino}methyl)-3,4-dihydro-2H-chromen-6-yl]benzenesulfonamide]",≥ 6.00
16,"COCC(=O)NS(=O)(=O)c1cccc(-c2ccc3c(c2)CCC(CNC[C@H](O)c2cccnc2)O3)c1 (stereo in doubt) [Example 283, 3-[(2S)-2-({[(2R)-2-hydroxy-2-(3-pyridinyl)ethyl]amino}methyl)-3,4-dihydro-2H-chromen-6-yl]-N-(methoxyacetyl)benzenesulfonamide]",≥ 6.00
17,O=S(=O)(Nc1ccccn1)c1cccc(-c2ccc3c(c2)CC[C@H](CNC[C@H](O)c2cccnc2)O3)c1 [Example 254],≥ 6.00
